In this assay the test system is apomorphine-induced climbing. The assay is described as follows: Climbing Mice Assay (block of apomorphine-induced climbing). The class given is in vivo, CK-1 male mice. To be noted: Mus musculus, ip, read-out: Antipsychotic Activity (Climbing Mice Assay) ED50. As for the experimental part: The subject CK-1 male mice (23-27 grams) are group-housed under standard laboratory conditions. The mice are individually placed in wire mesh stick cages (4"×4" 10) and are allowed one hour for adaptation and exploration of the new environment.
For evaluation of climbing, three readings are taken at 10, 20 and 30 minutes after apomorphine administration according to the following scale: […]
Mice consistently climbing before the injection of apormorphine are discarded.
With full-developed apomorphine climbing, the animals are hanging onto the cage walls, rather motionless, over longer periods of time. By contrast, climbs due to mere motor stimulation usually last only a few seconds.
The climbing scores are individually totaled (maximal score; 6 per mouse over three readings) and the total score of the control group (vehicle intraperitioneally-apomorphine subcutaneously) is set to 100%.

Structures are written as SMILES. Like-named read-outs stand apart in the source and are kept apart here.

`COc1cc(C(C)=O)ccc1OCCCN1CCN(c2csc3cc(F)ccc23)CC1` [1-[4-[3-[4-(6-Fluorobenzo[b]thiophen-3-yl)-1-piperazinyl]propoxy]-3-methoxyphenyl]ethanone]: the ED50 (CK-1 male mice, compound i.p. 30 minutes prior to apomorphine 1.5 mg/kg s.c., readings at 10, 20 and 30 minutes, linear regression) was 1.42 mg/kg.

As to `O=C(CCCN1CCC(O)(c2ccc(Cl)cc2)CC1)c1ccc(F)cc1` [Haloperidol], the ED50 came to 0.33 mg/kg.

Usually ED50 stands for the dose at which the effect has come halfway, by size or by number of responders.

(Values after patent publication US5240927A, “Benzo[β]thiophen-3-yl piperazines as antipsychotic agents” (Hoechst-Roussel Pharmaceuticals Incorporated, priority 1992, dated 1993).)
